Source: patent US20170204076A1, “SYNTHESIS AND USE OF AMINO LIPIDS” (INCELLA GMBH, priority 2014, published 2017)

Legend:
[1] = tested on: mouse embryonic fibroblast (MEF) cells; assay: Transfection of LRP6 siRNA in MEF cells, Western Blot of LRP6 protein; assay type: cell-based; conditions: for siRNA mediated gene silencing compared with the commercial reagent A: LRP6 siRNA, MEF cells cultured for 24 hours, Western Blot; for ability to deliver siRNA molecules to cells: see FIGS. 5 and 6
Description: In order to screen for this two different types of cells were used to test the ability of our lipid reagents to deliver siRNA targeting Low density lipoprotein receptor related protein 6 (LRP6). This is a 200 kD single-pass transmembrane receptor for Wnt ligands and activates the Wnt/b-catenin signalling pathway. It is expressed at relatively high levels in MEF cells.
Assay: Transfection of siRNA in mouse embryonic fibroblast (MEF) cells
All steps performed in 0.2 ml PCR tubes and 96 well plate format. Amounts shown are for one well of a 96-well plate.
1. 0.25 μl lipid reagents diluted in 8 μl 50 mmol/l NaOAc buffer, pH 5.0. 2. Diluted lipid reagents from (1) added to 1 pmol (0.2 μl of 5 μmol/1) siRNA molecules in 8 μl NaOAc buffer, pH 5.0 and mixed with pipette action. The siRNA molecules used had either a scrambled sequence not specific for any known gene (Con siRNA), or a sequence specifically targeting the endogenous mRNA from the LRP6 gene (LRP6 siRNA). 3. After 30 min incubation at RT, added 50 μl freshly resuspended cells (2×10^4 cells/well DMEM culture medium supplemented with 10% fetal calf serum) in one well of a 96-well plate and placed in 37° C. incubator with 5% CO2. 4. 24 hours after initial transfection, cells, were lysed in 25 μl detergent buffer (50 mmol/l Tris, 1% Triton X-100, 0.15 mol/l NaCl, pH 7.0, containing protease and phosphatase inhibitors), spun to remove insoluble cell debris and […] clarified lysates added to 10 μl of 4× SDS loading buffer (250 mmol/l Tris HCl, 40% Glycerol, 8% SDS, 0.01% Bromophenol Blue, 5% 2-Mercaptoethanol, pH 6.8). 5. Samples were denatures by heating at 96° C. for 2 min and 12 μl loaded on a 9% SDS-PAGE gels for separation of proteins according to molecular weight. Separated proteins were transferred from the SDS-PAGE gel to nitrocellulose membrane for Western Blot (WB) analysis. 6. WB was performed using an automated BioLane HTI instrument using antibodies against LRP6 and α-tubublin proteins. HRP linked secondary antibodies and chemiluminescence were used to detect the proteins on the membrane.
FIGS. 5 and 6 show the Western Blot (WB) analysis of LRP6 protein from total lysates of MEF (mouse embryonic fibroblast) cells transfected with the indicated siRNA molecules and cultured for 24 hours.

HEK 293 cells = assay: Primary screen of lipid reagents: plasmid DNA transfection, YFP fluorescence relative to total cell number (Hoechst); assay type: cell-based; conditions: for cell toxicity: Hoechst stained apoptotic nuclei, microscope images; for transfection efficiency: HEK 293 cells, plasmid DNA (YFP), 20 to 24 hours after transfection
Description: Cell line: HEK 293 cells Screen format: 96-well Detection (read-out): YFP fluorescence relative to total cell number (total cell number assessed using the nuclear dye, Hoechst—see FIGS. 1 and 2)
A commercially available liposomal transfection reagent was used as a reference (reference reagent) according to manufacturers' instructions, see FIGS. 1 and 2.
All steps performed in 96 tube/plate format using 8- or 12-channel multi-pipettes. Amounts shown are for duplicate (2×) wells of a 96-well plate.
1. 0.8 μl lipid reagents diluted in 20 μl 50 mmol/l NaOAc buffer, pH 5.0. 2. Diluted lipid reagents from (1) were added to 150 ng DNA (25 ng pH2B-YFP+125 ng pCS-LacZ plasmids) in 20 μl NaOAc buffer, pH 5.0 and mixed with pipette action. 3. After 30 min incubation at RT, added 100 μl freshly resuspended cells (5×10^4 cells/well DMEM culture medium supplemented with 10% fetal calf serum) and mixed with pipette. 4. Duplicate 65 μl aliquots of the cells+lipid/DNA complexes were immediately transferred to separate wells of a 96-well culture plate and placed in 37° C. incubator with 5% CO2. 5. 20 to 24 hours after initial transfection of cells, Hoechst 33258 dye was added to cells at a final concentration of 0.2 μg/ml and cells incubated for a further 30 min at 37° C. Cells were then placed on an inverted microscope and 2 independent sets of images of the cells captured from each well as shown in FIGS. 1 and 2.
For each sample, 3 images were captured: bright field image of cells (FIGS. 1 and 2 upper panels), Hoechst dye stained image of total cell nuclei (FIGS. 1 and 2 middle panels) and YFP images showing cells successfully transfected with plasmid DNA and expressing YFP protein (FIGS. 1 and 2 lower panels). Microscope images of transfected HEK 293 cells, showing both the transfection efficiency and toxicity level of two of our lipid molecules (#30 and #60) compared to a commonly used commercial transfection reagent (reference reagent).

Row | Compound | siRNA mediated gene silencing compared with the commercial reagent A [1] | ability to deliver siRNA molecules to cells [1] | cell toxicity (HEK 293 cells) | transfection efficiency (HEK 293 cells)
1 | CCCCCCCCCCCSCC(CNC(=O)NCCN(C)C)SCCCCCCCCCCC (stereo not shown) [Example 24, 1-(2,3-bis(undecylthio)propyl)-3-(2-(dimethylamino)ethyl)urea] | quite effective | very efficiently deliver siRNA molecules to cells | very low toxicity | 
2 | CCCCCCCCCCCSCC(CNC(=O)NCCCN(CC)CC)SCCCCCCCCCCC (stereo not shown) [Example 30, 1-(2,3-bis(undecylthio)propyl)-3-(3-(diethylamino)propyl)urea] |  |  | low cell toxicity | approximately 90%
3 | CCCCCCCCCCCCSCC(COCC(O)CNCCCN(CC)CC)SCCCCCCCCCCCC (stereo not shown) [Example 60, 13-(dodecylthio)-3-ethyl-11-oxa-15-thia-3,7-diazaheptacosan-9-ol] |  |  | low cell toxicity | approximately 90%
4 | CCCCCCCCCCCSCC(COCC(O)CNCCN(CC)CC)SCCCCCCCCCCC (stereo not shown) [Example 64, 3-ethyl-12-(undecylthio)-10-oxa-14-thia-3,6-diazapentacosan-8-ol] | quite effective | very efficiently deliver siRNA molecules to cells | very low toxicity | 
